Laboratory results reported in patent publication US9873694B2, “Imidazole quinoline-based immune system modulators” (Janus Biotherapeutics, Inc., priority 2011, dated 2018).

How the values were obtained:
human TLR9 (hTLR9) = biological target: T1, human TLR9 (hTLR9) (Homo sapiens, UniProt Q9NR96); test: TLR9 antagonist assay (HEK-Blue-hTLR9 cells, NF-kB/AP-1 driven SEAP reporter, ODN 2006 agonist); assay type: cell-based; conditions: 1 hour compound pre-incubation, then hTLR9 agonist (such as ODN 2006, 1 uM) overnight, SEAP read at 620 nm, 4 parameter Hill fit, read-out: hTLR9 antagonism IC50
T1 construct: host or cells: HEK293 (HEK-Blue-hTLR9)
T1 sequence (Q9NR96 26-1032): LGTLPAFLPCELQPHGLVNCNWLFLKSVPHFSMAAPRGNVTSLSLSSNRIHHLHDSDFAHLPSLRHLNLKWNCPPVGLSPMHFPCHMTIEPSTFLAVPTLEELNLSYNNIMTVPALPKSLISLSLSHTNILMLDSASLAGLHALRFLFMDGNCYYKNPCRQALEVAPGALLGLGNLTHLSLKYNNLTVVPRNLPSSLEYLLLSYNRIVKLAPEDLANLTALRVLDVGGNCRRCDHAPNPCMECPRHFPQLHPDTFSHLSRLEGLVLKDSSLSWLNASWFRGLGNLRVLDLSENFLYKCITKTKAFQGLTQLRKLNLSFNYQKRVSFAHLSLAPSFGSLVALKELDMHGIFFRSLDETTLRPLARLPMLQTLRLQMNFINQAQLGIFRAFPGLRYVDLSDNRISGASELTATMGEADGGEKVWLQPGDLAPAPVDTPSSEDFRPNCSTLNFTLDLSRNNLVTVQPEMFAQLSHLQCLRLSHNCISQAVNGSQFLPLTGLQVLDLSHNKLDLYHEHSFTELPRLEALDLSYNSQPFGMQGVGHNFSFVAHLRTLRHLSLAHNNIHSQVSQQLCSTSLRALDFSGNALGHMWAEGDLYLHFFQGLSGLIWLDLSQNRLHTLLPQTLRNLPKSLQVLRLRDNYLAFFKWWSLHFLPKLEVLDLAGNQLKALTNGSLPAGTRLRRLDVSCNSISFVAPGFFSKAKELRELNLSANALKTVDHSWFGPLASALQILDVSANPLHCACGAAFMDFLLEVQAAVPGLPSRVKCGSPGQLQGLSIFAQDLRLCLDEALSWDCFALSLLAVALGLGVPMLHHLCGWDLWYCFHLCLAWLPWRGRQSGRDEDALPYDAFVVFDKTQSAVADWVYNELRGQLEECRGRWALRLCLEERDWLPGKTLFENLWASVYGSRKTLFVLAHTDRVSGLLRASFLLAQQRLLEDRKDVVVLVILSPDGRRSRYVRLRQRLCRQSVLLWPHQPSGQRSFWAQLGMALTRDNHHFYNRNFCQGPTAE
From the text: HEK-Blue™-hTLR9 cells were obtained from InvivoGen Inc. and used to determine test compound antagonism of human TLR9 (hTLR9) driven responses. HEK-Blue™-hTLR9 cells are designed for studying the stimulation of human TLR9 by monitoring the activation of NF-kB. As described by the manufacturer, “HEK-Blue™-hTLR9 cells were obtained by co-transfection of the hTLR9 gene and an optimized secreted embryonic alkaline phosphatase (SEAP) reporter gene into HEK293 cells. The SEAP reporter gene is placed under the control of the IFN-b minimal promoter fused to five NF-kB and AP-1 binding sites. Stimulation with a TLR9 ligand activates NF-kB and AP-1 which induces the production of SEAP. Levels of SEAP can be easily determined with QUANTI-Blue™ a detection medium that turns purple/blue in the presence of alkaline phosphatase”.
A cell suspension of HEK-Blue™-hTLR9 cells at ˜450,000 cells per ml in test medium which contained 5% (v/v) heat inactivated FBS was prepared. 180 ul of cell suspension (˜80,000 cells) was added per well of a flat-bottom 96-well plate and place in an incubator at 37° C. for overnight.
Test compounds were serially diluted in test medium, generally starting at 10 uM, and diluting by 3 fold in a 96 well master plate. 20 ul of diluted test compound was transferred using a 12 channel multi-channel pipet to the cell plate and incubated at 37° C. for 1 hour. Then 20 ul of an hTLR9 agonist (such as ODN 2006, 1 uM) was added to each well and the plate incubated at 37° C. overnight.
Invivogen's QUANTI-Blue™ was prepared following the manufacturer's instructions. […] of resuspended QUANTI-Blue™ was added per well of a flat bottom 96-well plate. 20 ul per well of induced HEK-Blue™-hTLR9 cells supernatant was then added to the plate and the plate was incubated at 37° C. for 1-3 h. SEAP levels were determined using a spectrophotometer at 620 nm.
The concentration dependent inhibition of hTLR9 dependent SEAP production was expressed as the concentration of compound which produced half the maximal level of SEAP induced by the hTLR agonist alone. Percent activity was calculated for each observation using the formula: % activity=((observed O.D.−background O.D.)/(agonist only O.D.−background O.D.))*100. The 50% inhibitory concentration (IC50) (Table 3) was calculated by using a 4 parameter Hill plot sigmoidal curve fit where the inflection point of the sigmoidal curve is defined as the point of 50% activity.

TLR9 = biological target: T2, TLR9 (Mus musculus, UniProt Q9EQU3); test: In vivo TLR antagonism: serum IL-12 after CpG ODN 1668 TLR9 agonist injection, single intraperitoneal dose to male C57Bl/6 mice; set-up: species or system C57Bl/6J mouse; conditions: male C57Bl/6J mice; test article i.p. at T=0 hr; CpG ODN 1668 i.p. at T=1 hr; serum IL-12 ELISA at T=4 hr; doses 400 ug to 10 ug
T2 construct: Male C57Bl/6J mice, at ˜8 weeks of age from Jackson Laboratories were used; tissue Jackson Laboratories; host or cells: whole animal, male C57Bl/6J mouse
T2 sequence (Q9EQU3 26-1032): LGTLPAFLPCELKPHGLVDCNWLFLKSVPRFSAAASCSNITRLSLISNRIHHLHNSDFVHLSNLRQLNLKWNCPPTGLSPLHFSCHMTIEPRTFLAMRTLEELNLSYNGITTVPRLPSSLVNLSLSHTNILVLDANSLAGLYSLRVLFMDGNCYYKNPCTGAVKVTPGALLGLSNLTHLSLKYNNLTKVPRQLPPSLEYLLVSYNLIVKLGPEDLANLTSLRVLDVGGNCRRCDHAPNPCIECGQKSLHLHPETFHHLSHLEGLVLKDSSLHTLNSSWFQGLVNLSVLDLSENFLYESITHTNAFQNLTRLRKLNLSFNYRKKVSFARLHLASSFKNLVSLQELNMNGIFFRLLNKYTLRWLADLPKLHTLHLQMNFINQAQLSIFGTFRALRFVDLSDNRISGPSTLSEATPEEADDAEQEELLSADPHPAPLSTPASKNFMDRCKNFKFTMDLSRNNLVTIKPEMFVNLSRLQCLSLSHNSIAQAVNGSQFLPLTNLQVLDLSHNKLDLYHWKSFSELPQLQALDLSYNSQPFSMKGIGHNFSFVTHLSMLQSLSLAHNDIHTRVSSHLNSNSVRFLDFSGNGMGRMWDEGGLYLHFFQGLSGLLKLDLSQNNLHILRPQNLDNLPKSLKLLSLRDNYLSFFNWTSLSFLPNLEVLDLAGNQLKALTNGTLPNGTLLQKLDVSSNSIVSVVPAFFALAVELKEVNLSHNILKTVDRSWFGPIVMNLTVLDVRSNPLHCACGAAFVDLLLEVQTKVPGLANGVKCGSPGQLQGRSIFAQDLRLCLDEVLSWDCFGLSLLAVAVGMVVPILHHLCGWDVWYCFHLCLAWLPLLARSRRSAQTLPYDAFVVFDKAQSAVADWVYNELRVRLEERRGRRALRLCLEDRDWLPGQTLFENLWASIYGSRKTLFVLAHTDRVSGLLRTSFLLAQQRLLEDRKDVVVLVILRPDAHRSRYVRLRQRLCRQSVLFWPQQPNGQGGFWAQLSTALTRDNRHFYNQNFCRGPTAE
Experimental: The Effects of test articles on Toll-Like Receptor (TLR) Knockdown Following a Single Intraperitoneal Dose to Male C57Bl/6 Mice.
Toll-Like Receptor (TLR) knockdown effect of test articles was evaluated in a C57Bl/6J mouse. Primary end points included a terminal blood collection for analysis of cytokine production in response to CpG-DNA TLR9 agonist injection. Male C57Bl/6J mice, at ˜8 weeks of age from Jackson Laboratories were used. Test groups were 3 mice per treatment group and the groups were administered test article in a series of descending doses within the range of 400 ug to 10 ug. Test article treatment was dosed at T=0 hr by intraperitoneal injection. Agonist (CpG ODN 1668) treatment was dosed one hour later, T=1 hr by intraperitoneal injection. Necropsy was performed 3 hours post agonist treatment, T=4 hr. Blood samples were collected into serum separator tubes, allowed to clot at room temperature for at least 20 minutes, centrifuged at ambient temperature at 3000 g for 10 minutes, and the serum was extracted. ELISA was performed to determine murine IL-12 levels following manufacture's protocol (BioLegend Inc.). Serum IL-12 levels were calculated and plotted versus administered dose of antagonist and inhibitory dose at 50% (ID50) was determined.

| IC50 (human TLR9 (hTLR9)) [nM] | In vivo TLR antagonism ID50 (inhibitory dose at 50% of serum IL-12) (TLR9) [µg] | Compound |
| --- | --- | --- |
| 389 |  | CCOCc1nc2c(N(C)CCN(C)C)nc3ccccc3c2n1CCN(C)C [Compound 61] |
| 143 | 1262 | CN(C)CCN(C)c1nc2ccccc2c2c1ncn2CCN(C)C [Compound 67] |
| 136 | 280 | CN(C)CCN(C)c1nc2ccccc2c2c1nc(O)n2CCN(C)C [Compound 68] |
| 1650 |  | CN(C)CCN(C)c1nc2ccccc2c2c1nc(O)n2CCc1c[nH]cn1 [Compound 69] |

Second part, the molecule before the results:

| Compound | IC50 (human TLR9 (hTLR9)) [nM] | In vivo TLR antagonism ID50 (inhibitory dose at 50% of serum IL-12) (TLR9) [µg] |
| --- | --- | --- |
| CCOCc1nc2c(N(C)CCN(C)C)nc3ccccc3c2n1CCN1CCOCC1 [Compound 60] | 3410 |  |
| CCOCc1nc2c(N3CCN(C)CC3)nc3ccccc3c2n1CCN(C)C [Compound 62] | 713 |  |
| CCOCc1nc2c(N(C)CCN(C)C)nc3ccccc3c2n1CCOCCO [Compound 63] | 3350 |  |
| CCOCc1nc2c(N3CCN(C)CC3)nc3ccccc3c2n1CCOCCO [Compound 64] | 6690 |  |
| CCOCc1nc2c(N(C)CCN(C)C)nc3ccccc3c2n1CCN1CCN(C)CC1 [Compound 65] | 56 | 67 |
| CCOCc1nc2c(N3CCN(C)CC3)nc3ccccc3c2n1CCN1CCN(C)CC1 [Compound 66] | 323 |  |
